# Laboratory results published in ChEMBL document CHEMBL1134145, “Carbohydrate recognition of gramicidin S analogues in aqueous medium” (Bioorg Med Chem Lett, 2001).
# What was measured:
# [1] = Dissociation constant of compound with Fructose was determined; type: physicochemical
# [2] = Dissociation constant of compound with Lactulose was determined; type: physicochemical
SMILES,Kd [1],Kd [2]
NCCC[C@@H]1NC(=O)[C@H](CC(N)=O)NC(=O)[C@@H]2CCCN2C(=O)[C@@H](Cc2ccccc2)NC(=O)[C@H](Cc2c[nH]c3ccccc23)NC(=O)[C@H](CCCN)NC(=O)[C@H](CC(N)=O)NC(=O)[C@@H]2CCCN2C(=O)[C@@H](Cc2ccccc2)NC(=O)[C@H](Cc2c[nH]c3ccccc23)NC1=O,1500 µM,200 µM
NCCC[C@@H]1NC(=O)[C@H](CC(=O)O)NC(=O)[C@@H]2CCCN2C(=O)[C@@H](Cc2ccccc2)NC(=O)[C@H](Cc2c[nH]c3ccccc23)NC(=O)[C@H](CCCN)NC(=O)[C@H](CC(=O)O)NC(=O)[C@@H]2CCCN2C(=O)[C@@H](Cc2ccccc2)NC(=O)[C@H](Cc2c[nH]c3ccccc23)NC1=O,1500 µM,
NCCC[C@@H]1NC(=O)[C@H](CC(=O)O)NC(=O)[C@@H]2CCCN2C(=O)[C@@H](Cc2ccccc2)NC(=O)[C@H](Cc2c[nH]c3ccccc23)NC(=O)[C@H](CCCN)NC(=O)[C@H](CC(N)=O)NC(=O)[C@@H]2CCCN2C(=O)[C@@H](Cc2ccccc2)NC(=O)[C@H](Cc2c[nH]c3ccccc23)NC1=O,4700 µM,180 µM
NCCC[C@@H]1NC(=O)[C@H](CCC(N)=O)NC(=O)[C@@H]2CCCN2C(=O)[C@@H](Cc2ccccc2)NC(=O)[C@H](Cc2c[nH]c3ccccc23)NC(=O)[C@H](CCCN)NC(=O)[C@H](CCC(N)=O)NC(=O)[C@@H]2CCCN2C(=O)[C@@H](Cc2ccccc2)NC(=O)[C@H](Cc2c[nH]c3ccccc23)NC1=O,,30 µM
